{"source": "paper PMC6393351", "about": "“Linking Terpene Synthases to Sesquiterpene Metabolism in Grapevine Flowers” (Frontiers in Plant Science, 2019)", "test_in_all_cases": "in vivo yeast expression, HS-SPME-GC-MS of volatiles", "assay_type_in_all_cases": "cell-based", "details_in_all_cases": "endogenous FPP of engineered yeast GT051, not added; pH 6, 5 mM Mg2+, 30 °C, 16 h", "key": {"VvivMATPS01": {"biological_target": "T1, VvivMATPS01 (Vitis vinifera, UniProt A0A482ANT9)", "T1 construct": "full-length ORF from cDNA; expressed in yeast GT051 under GAL1 promoter", "T1 sequence (A0A482ANT9 1-555)": "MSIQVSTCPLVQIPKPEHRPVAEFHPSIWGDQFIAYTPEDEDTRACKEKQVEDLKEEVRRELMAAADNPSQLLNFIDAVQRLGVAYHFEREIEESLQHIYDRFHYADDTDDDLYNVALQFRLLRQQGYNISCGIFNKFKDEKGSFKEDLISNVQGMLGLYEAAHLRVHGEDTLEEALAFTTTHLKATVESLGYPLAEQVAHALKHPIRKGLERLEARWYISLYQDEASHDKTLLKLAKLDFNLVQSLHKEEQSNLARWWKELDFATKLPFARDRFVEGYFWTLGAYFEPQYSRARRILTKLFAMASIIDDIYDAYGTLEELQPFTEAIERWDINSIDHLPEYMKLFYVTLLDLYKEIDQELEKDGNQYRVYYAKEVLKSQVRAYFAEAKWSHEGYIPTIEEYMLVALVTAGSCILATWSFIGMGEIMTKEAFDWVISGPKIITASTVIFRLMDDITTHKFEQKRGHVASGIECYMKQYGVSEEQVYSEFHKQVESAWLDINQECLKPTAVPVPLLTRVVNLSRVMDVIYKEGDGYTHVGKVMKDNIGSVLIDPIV"}, "VvivMATPS10": {"biological_target": "T2, VvivMATPS10 (Vitis vinifera, UniProt A0A482AL43)", "T2 construct": "full-length ORF from flower cDNA; yeast GT051 (GAL1 promoter); also transient expression in N. benthamiana (pEAQ-HT-DEST1)", "T2 sequence (A0A482AL43 1-560)": "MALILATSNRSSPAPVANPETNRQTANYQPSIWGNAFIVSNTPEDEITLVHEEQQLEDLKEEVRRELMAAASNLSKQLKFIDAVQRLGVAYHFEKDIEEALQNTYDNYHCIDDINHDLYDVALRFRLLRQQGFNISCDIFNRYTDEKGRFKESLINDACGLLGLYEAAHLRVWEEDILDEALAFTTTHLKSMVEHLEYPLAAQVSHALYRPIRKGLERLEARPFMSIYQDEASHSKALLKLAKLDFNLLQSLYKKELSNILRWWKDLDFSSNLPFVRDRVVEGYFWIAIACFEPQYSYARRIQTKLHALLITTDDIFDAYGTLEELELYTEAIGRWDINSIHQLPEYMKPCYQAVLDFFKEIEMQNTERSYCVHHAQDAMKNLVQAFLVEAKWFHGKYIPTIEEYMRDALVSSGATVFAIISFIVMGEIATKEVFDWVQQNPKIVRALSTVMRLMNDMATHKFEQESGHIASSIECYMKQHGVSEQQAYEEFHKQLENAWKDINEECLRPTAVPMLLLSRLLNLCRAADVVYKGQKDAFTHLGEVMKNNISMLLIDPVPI"}, "VvivMATPS28": {"biological_target": "T3, VvivMATPS28 (Vitis vinifera, UniProt A0A482AJV9)", "T3 construct": "full-length ORF from cDNA; expressed in yeast GT051 under GAL1 promoter", "T3 sequence (A0A482AJV9 1-558)": "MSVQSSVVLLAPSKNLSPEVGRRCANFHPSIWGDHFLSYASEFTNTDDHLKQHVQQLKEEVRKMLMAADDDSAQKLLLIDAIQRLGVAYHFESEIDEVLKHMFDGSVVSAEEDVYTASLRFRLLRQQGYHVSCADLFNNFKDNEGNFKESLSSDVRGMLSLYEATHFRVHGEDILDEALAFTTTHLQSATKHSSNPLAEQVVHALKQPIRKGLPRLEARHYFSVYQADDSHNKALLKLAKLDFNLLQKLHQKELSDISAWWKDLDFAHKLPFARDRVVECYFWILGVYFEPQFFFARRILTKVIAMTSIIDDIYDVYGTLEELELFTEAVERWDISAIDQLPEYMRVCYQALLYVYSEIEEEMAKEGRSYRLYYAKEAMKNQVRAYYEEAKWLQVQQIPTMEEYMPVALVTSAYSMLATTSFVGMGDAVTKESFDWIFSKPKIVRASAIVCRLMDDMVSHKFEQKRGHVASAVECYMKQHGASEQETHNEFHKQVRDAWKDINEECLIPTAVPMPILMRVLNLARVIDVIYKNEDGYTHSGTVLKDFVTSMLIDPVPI"}, "VvivSBTPS02": {"biological_target": "T4, VvivSBTPS02 (Vitis vinifera, UniProt A0A482AJK8)", "T4 construct": "full-length ORF from cDNA; expressed in yeast GT051 under GAL1 promoter", "T4 sequence (A0A482AJK8 1-555)": "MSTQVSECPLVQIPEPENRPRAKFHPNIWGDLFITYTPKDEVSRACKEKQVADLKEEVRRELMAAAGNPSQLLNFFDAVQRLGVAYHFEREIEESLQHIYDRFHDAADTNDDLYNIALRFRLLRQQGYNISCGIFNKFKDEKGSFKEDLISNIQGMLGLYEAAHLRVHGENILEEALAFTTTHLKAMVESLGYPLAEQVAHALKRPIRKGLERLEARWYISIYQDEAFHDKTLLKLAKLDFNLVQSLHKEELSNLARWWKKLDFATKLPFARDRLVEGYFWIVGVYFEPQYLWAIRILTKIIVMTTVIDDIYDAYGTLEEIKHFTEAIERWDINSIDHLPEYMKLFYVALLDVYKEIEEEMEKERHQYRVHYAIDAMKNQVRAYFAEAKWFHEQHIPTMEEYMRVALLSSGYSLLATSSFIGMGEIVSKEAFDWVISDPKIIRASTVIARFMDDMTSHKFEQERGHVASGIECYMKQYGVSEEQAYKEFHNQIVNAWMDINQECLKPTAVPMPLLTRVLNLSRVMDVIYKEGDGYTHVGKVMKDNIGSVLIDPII"}, "VvivMATPS27": {"biological_target": "T5, VvivMATPS27 (Vitis vinifera, UniProt E5GAF4)", "T5 construct": "full-length ORF from cDNA; expressed in yeast GT051 under GAL1 promoter", "T5 sequence (E5GAF4 1-557)": "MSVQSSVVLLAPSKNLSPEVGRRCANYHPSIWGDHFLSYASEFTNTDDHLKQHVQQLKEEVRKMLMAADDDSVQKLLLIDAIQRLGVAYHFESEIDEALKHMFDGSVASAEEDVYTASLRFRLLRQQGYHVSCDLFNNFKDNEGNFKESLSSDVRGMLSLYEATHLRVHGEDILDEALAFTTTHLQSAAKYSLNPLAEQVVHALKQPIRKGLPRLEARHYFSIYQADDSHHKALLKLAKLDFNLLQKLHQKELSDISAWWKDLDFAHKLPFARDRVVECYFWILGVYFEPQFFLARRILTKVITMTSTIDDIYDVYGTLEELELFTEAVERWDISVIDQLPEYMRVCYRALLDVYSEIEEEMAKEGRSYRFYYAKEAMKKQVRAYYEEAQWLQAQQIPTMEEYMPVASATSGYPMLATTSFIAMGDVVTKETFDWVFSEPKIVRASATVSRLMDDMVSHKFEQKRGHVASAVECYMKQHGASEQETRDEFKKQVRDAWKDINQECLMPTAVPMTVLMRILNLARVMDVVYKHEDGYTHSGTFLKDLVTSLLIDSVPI"}, "VvivSBTPS01": {"biological_target": "T6, VvivSBTPS01 (Vitis vinifera, UniProt A0A482ALZ4)", "T6 construct": "full-length ORF from cDNA; expressed in yeast GT051 under GAL1 promoter", "T6 sequence (A0A482ALZ4 1-555)": "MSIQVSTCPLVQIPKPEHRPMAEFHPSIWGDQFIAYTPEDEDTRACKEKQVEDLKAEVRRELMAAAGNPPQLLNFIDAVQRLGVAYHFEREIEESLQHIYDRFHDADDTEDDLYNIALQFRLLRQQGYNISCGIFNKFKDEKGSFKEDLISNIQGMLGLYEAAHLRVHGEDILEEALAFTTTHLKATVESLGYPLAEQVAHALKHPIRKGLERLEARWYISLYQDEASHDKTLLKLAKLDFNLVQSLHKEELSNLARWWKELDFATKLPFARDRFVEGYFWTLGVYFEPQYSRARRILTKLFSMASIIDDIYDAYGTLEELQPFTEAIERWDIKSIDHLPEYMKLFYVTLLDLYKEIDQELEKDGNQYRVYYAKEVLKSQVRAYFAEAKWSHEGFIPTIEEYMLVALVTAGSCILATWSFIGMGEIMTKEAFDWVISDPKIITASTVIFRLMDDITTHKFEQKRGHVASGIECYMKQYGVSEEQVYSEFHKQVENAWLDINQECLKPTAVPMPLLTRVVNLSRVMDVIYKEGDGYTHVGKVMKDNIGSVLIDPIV"}, "VvivSHTPS27": {"biological_target": "T7, VvivSHTPS27 (Vitis vinifera, UniProt A0A482AKK8)", "T7 construct": "full-length ORF from cDNA; expressed in yeast GT051 under GAL1 promoter", "T7 sequence (A0A482AKK8 1-557)": "T5 sequence (E5GAF4 1-557) with Y27F"}}, "note": "Where a chain is given by its changes, count along the chain named.", "data": [{"molecule": "CC(C)=CCC/C(C)=C/CC/C(C)=C/COP(=O)(O)OP(=O)(O)O", "note": "[FPP]", "values": [{"measurement": "in vivo yeast expression, HS-SPME-GC-MS of volatiles", "setting": "VvivMATPS01", "value": "increase the metabolic flux for the FPP terpene precursor"}, {"measurement": "in vivo yeast expression, HS-SPME-GC-MS of volatiles", "setting": "VvivMATPS10", "value": "increase the metabolic flux for the FPP terpene precursor"}, {"measurement": "in vivo yeast expression, HS-SPME-GC-MS of volatiles", "setting": "VvivMATPS28", "value": "increase the metabolic flux for the FPP terpene precursor"}, {"measurement": "in vivo yeast expression, HS-SPME-GC-MS of volatiles", "setting": "VvivSBTPS02", "value": "increase the metabolic flux for the FPP terpene precursor"}, {"measurement": "in vivo yeast expression, HS-SPME-GC-MS of volatiles", "setting": "VvivMATPS27", "value": "increase the metabolic flux for the FPP terpene precursor"}, {"measurement": "in vivo yeast expression, HS-SPME-GC-MS of volatiles", "setting": "VvivSBTPS01", "value": "increase the metabolic flux for the FPP terpene precursor"}, {"measurement": "in vivo yeast expression, HS-SPME-GC-MS of volatiles", "setting": "VvivSHTPS27", "value": "increase the metabolic flux for the FPP terpene precursor"}]}]}
